Experimental data taken from patent US12466814B2, “Sterically shielded heptamethine cyanine dyes” (UNIVERSITY OF NOTRE DAME DU LAC, priority 2020, dated 2025).
“And” between values parts separate entries of the source, which are not always exact repeats. Identical values can stand only once. Marks after values point to notes of the source that are not given here.

Experiments:
[1] = Quantum yield and fluorescence brightness relative to UL766; type: physicochemical
From the text: The fluorescence spectrum of each solution was obtained with excitation at 730 nm, and the integrated area was used in the quantum yield calculation by the following equation:
[formula] where η is the refractive index of the solvent, I is the integrated fluorescence intensity, and A is the absorbance at a chosen wavelength. […]

[2] = meso linkage is not cleaved by biological amines or thiols; cited from earlier work
[3] = Absorption and emission spectral properties of dyes; type: physicochemical; conditions: for λabs max: monomer (m) band where an aggregate band is also listed
Description: General. Reagents and solvents were purchased from Sigma-Aldrich, VWR, Oakwood, Thermo Fisher and TCI and used without further purification unless stated otherwise. Anhydrous tetrahydrofuran was distilled with metal sodium and benzophenone. Column chromatography was performed using Biotage SNAP Ultra columns. ^1H, ^13C and ROESY NMR spectra were recorded on a Bruker 500 NMR spectrometer. Chemical shifts are presented in ppm and referenced by residual solvent peak. High-resolution mass spectrometry (HRMS) was performed using a time-of-flight (TOF) analyzer with electrospray ionization (ESI). Absorption spectra were recorded on an Evolution 201 UV/vis spectrometer with Thermo Insight software. Fluorescence spectra were collected on a Horiba Fluoromax-4 fluorometer with FluoroEssence software. Analyte solutions were prepared in HPLC grade water (Sigma-Aldrich), phosphate buffered saline (Thermo Fisher), fetal bovine serum (Sigma-Aldrich) or buffer B (575 mM NaCl, 37.5 mM NaH2PO4 and 0.75 mM EDTA in water, pH 7.5). All absorption and fluorescence spectra were collected using quartz cuvettes (1 mL, 1 cm path length; for emission and excitation spectra, slit width=3 nm).

[4] = Photostability, Xenon lamp irradiation; type: physicochemical
Description: FIG. 2. Two separate photostability studies. (a) Lamp irradiation: Four separate cuvettes, each containing 1 μM dye in PBS buffer, pH 7.4, were irradiated by a 150 W Xenon lamp with a 620 nm long-pass filter. The plot of normalized dye absorbance versus time was fit to a one-phase exponential decay. […] The length scale bar on each NIR fluorescence image is 1 cm.
Photostability Measurements. Lamp Irradiation: A solution of dye (1 μM) in PBS buffer, pH 7.4, was placed in a 1×1×4 cm^3 cuvette that was exposed to air and irradiated at a distance of 3 cm by a 150 W Xenon lamp with a 620 nm long-pass filter. An absorbance spectrum was recorded every 10 min. The normalized maximum absorbance of dye was plotted against time and fitted to a non-linear regression, one-phase exponential decay. […] A 1.5 mL vial containing the solution was irradiated at a distance of 3 cm by a 150 W Xenon lamp with a 620 nm long-pass filter.

[5] = Dye self-aggregation by absorption/excitation spectra; type: physicochemical; conditions: in water / aqueous media, absorption spectra
From the text: Self-aggregation of heptamethine cyanine dyes is readily indicated by conversion of monomer absorption bands into aggregate bands, in this case blue-shifted H-aggregates.

[6] = Water solubility and storage of aqueous stock solutions; type: physicochemical; conditions: 1 mM in water
[7] = target: T1, bovine serum albumin (BSA) (Bos taurus, UniProt P02769); test: Albumin binding, dye fluorescence with and without BSA; conditions: PBS, presence and absence of BSA (2 μM)
T1 construct: a solution of bovine serum albumin (BSA, 2 μM) at 37° C; purchased
Description: The second set of titration experiments measured the fluorescence intensity for samples of 756z and s775z at different concentrations in the presence and absence of BSA (2 μM).

[8] = Antibody conjugate absorbance and fluorescence; type: physicochemical; conditions: value used in degree of labeling calculation
Description: Antibody Conjugate Absorbance. Absorbance spectra of goat IgG antibody bioconjugates were collected in buffer B (575 mM NaCl, 37.5 mM NaH2PO4 and 0.75 mM EDTA in water, pH 7.5) using Implen NanoPhotometer NP80. Spectra were normalized to absorbance at 280 nm.
Antibody Conjugate Fluorescence. […] The fluorescence emission spectra were divided by the fluorescence emission intensity at 355 nm (ex: 280 nm, slit width: 2 nm) to obtain corrected spectra that accounts for variations in antibody concentration.

[9] = target: T1, bovine serum albumin (BSA); test: Albumin binding, quenching of BSA tryptophan fluorescence
Description: FIG. 13. […] The relative fluorescence intensity at 335 nm was determined using the following equation, where F0 is the initial fluorescence intensity, F is the fluorescence intensity after each aliquot addition of dye, and the slope of the trend line (m) corresponds to Ka±SD.
Albumin Binding Measurements. Two separate sets of titration experiments were performed. The first set of titration experiments measured quenching of bovine serum albumin (BSA) tryptophan fluorescence as dye was added incrementally. […] After each aliquot addition, the solution was mixed and allowed to equilibrate for 5 min before spectral acquisition.

T1 sequence (P02769 25-607): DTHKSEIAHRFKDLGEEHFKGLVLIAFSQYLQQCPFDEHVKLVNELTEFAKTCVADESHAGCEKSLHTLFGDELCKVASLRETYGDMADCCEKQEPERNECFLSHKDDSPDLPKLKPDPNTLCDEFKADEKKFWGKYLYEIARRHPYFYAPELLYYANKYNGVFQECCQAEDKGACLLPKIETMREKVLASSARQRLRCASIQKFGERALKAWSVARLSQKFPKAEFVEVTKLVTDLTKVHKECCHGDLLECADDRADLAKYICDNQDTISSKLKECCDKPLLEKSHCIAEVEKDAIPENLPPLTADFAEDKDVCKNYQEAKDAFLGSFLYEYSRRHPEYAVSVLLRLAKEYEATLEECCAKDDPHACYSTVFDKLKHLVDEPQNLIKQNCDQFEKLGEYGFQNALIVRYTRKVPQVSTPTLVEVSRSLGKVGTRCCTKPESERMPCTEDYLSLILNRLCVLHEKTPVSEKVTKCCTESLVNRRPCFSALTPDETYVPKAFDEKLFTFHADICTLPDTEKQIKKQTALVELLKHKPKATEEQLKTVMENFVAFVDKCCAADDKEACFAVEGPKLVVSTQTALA

## CC1(C)C(/C=C/C2=C(c3ccc(C(=O)O)cc3)C(=C/C=C3/N(CCC[N+](C)(C)C)c4ccc(S(=O)(=O)O)cc4C3(C)C)/CCC2)=[N+](CCC[N+](C)(C)C)c2ccc(S(=O)(=O)O)cc21 [Dye 756z]
[1]; PBS pH 7.4, error ±15%
  Brightness (fluorescence brightness = ε × QY): 9,600
[1]; PBS pH 7.4, relative to UL766, error ±10%
  QY: 0.097
[1]; pH 7.4 PBS, relative to UL766, error ±10%
  Quantum yield: 9.7^[b] %
[2]
  Stable to nucleophiles: Yes
[3]; 2 μM BSA in pH 7.4 PBS
  SS (Stokes shift): 18 nm
  ε: 107,000 M^−1cm^−1
  λabs max, aggregate (a) band: 681 (a)/ nm
  λem max: 773 nm
  λabs max: 755 (m) nm
[3]; 100% FBS
  SS (Stokes shift): 16 nm
  ε: 118,000 M^−1cm^−1
  λabs max, aggregate (a) band: 682 (a)/ nm
  λem max: 774 nm
  λabs max: 758 (m) nm
[3]; H2O
  SS (Stokes shift): 17 nm
  ε: 56,000 M^−1cm^−1
  λabs max, aggregate (a) band: 681 (a)/ nm
  λem max: 773 nm
  λabs max: 756 (m) nm
[3]; PBS pH 7.4
  SS (Stokes shift): 17 nm
[3]; PBS pH 7.4, room temperature
  λabs max, aggregate (a) band: 681 (a)^[f] nm and 681 (a)/ nm
  λem max: 773 nm
  λabs max: 756 (m)^[f] nm and 756 (m) nm
[3]; PBS pH 7.4, room temperature, monomer band
  ε: 99,000 (0.942)^[b] M^−1cm^−1 and 99,000 M^−1cm^−1
[4]; pH 7.4 PBS, 150 W Xenon lamp irradiation, 620 nm long-pass filter, 23° C., 1 μM dye
  k, rate constant of first-order decay: 0.00037 s⁻¹
[4]; separate cuvettes, dye in PBS, Xenon lamp >620 nm
  Order of photostabilities: s775z>756z>UL766>ICG
[5]
  Aggregation state: exists largely as non-fluorescent H-aggregates
[6]
  Storage of 1 mM stock solution in water: forms a precipitate after 24 hr
[7]
  Effect of BSA on dye fluorescence: no effect on the dye fluorescence
[8]
  ϵmax for the monomer peak: 111,000 M^−1 cm^−1
[9]
  Ka relative to Ka for BSA association with ICG: about 40 times lower
[9]; BSA 2 μM, 37° C., tryptophan fluorescence quenching
  Ka for BSA: 16000 M⁻¹
[9]; tryptophan quenching titration
  Dye/BSA affinity: weak dye/BSA affinity
